Article PMC7894401 (CPT: Pharmacometrics & Systems Pharmacology, 2020)
Values joined by “and” are separate entries in the source; they are usually repeats but may differ in a detail not shown here. Equal entries are not always repeated. Where two headings read alike, the source gives them in different places.

Columns and labels:
UGT = details: ref 18 (ertugliflozin), 39 (dapagliflozin); cited from earlier work
[1] = human ADME study, ref 12 (ertugliflozin), 23 (dapagliflozin), cited from earlier work; for Renal excretion of unchanged drug: % of dose
PBPK = assay: PBPK; set-up: species or system human; details: dapagliflozin with MFA
[2] = blood/plasma ratio; ref 45 (ertugliflozin), 46 (dapagliflozin); cited from earlier work
Caco‐2 = details: ref 17 (ertugliflozin), 46 (dapagliflozin); cited from earlier work
[3] = Simcyp input, cited from earlier work; for LogP: ref 42 (ertugliflozin), DrugBank 50 (dapagliflozin), DrugBank 49 (MFA)
[4] = cited from earlier work; for Vss: after i.v. administration; for CLiv: intravenous plasma clearance
[5] = Human ADME study with 14C-labelled drug: excretion and metabolite recovery; assay type: in vivo; details: human ADME study (ertugliflozin ref 12, dapagliflozin ref 23)
CYP = assay: Overall oxidative; assay type: in vitro ADME; details: human, human liver microsomes (model input, not an incubation)
UGT1A9 [6] = target: T1, UGT1A9 (Homo sapiens, UniProt O60656); assay: UGT1A9 contribution to metabolism; assay type: in vitro ADME; details: for fm,UGT1A9 observed: calculated from clinical ADME and reaction phenotyping data; for microsomal CLint: human
T1 sequence (O60656 26-530): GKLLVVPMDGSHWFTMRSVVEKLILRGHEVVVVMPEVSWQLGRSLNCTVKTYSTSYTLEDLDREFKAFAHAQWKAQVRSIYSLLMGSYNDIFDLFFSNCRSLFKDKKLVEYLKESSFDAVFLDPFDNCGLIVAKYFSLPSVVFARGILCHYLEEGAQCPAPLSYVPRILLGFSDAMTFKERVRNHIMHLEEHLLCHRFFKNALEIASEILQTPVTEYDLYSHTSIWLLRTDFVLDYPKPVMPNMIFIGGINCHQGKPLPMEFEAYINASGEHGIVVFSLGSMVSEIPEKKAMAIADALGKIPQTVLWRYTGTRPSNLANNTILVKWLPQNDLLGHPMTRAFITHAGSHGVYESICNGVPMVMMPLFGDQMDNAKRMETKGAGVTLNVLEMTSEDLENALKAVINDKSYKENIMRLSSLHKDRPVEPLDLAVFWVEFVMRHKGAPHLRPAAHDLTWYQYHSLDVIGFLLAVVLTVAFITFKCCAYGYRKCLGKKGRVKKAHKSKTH

PBPK model = assay: PBPK model; set-up: species or system human
[7] = cited from earlier work
[8] = system: UGT2B7 (UGT2B4/2B7 contribution assigned to UGT2B7); assay: UGT2B4/2B7 contribution to metabolism; assay type: in vitro ADME, human; details: human
UGT2B4/2B7 [9] = assay: UGT2B4/2B7 contribution to metabolism; assay type: in vitro ADME, human; details: for fm,UGT2B7 observed: calculated from clinical ADME and reaction phenotyping data
CYP3A5 [10] = assay: CYP3A5 contribution to metabolism; assay type: in vitro ADME, human
UGT1A9 [11] = target: T1, UGT1A9; details: in vitro UGT reaction phenotyping; cited from earlier work
CYP3A4 [12] = assay: CYP3A4 contribution to metabolism; assay type: in vitro ADME, human
[13] = fraction unbound in plasma; ref 45 (ertugliflozin), 46 (dapagliflozin); cited from earlier work
CYP2C8 [14] = assay: CYP2C8 contribution to metabolism; assay type: in vitro ADME, human
CYP2C8 [15] = details: in vitro CYP reaction phenotyping, cited from earlier work
CYP3A4 [16] = details: in vitro CYP reaction phenotyping, cited from earlier work
UGT2B4/2B7 [17] = details: cited from earlier work
CYP3A5 [18] = details: in vitro CYP reaction phenotyping, cited from earlier work
UGT1A9 [19] = target: T1, UGT1A9; assay: In vivo Ki of MFA fitted in the PBPK model to the clinical MFA–dapagliflozin DDI; details: UGT1A9 and UGT2B7, relative potencies kept
UGT2B4 = target: T2, UGT2B4 (Homo sapiens, UniProt P06133); assay: Mefenamic acid inhibition of UGT2B4; assay type: biochemical; details: HLM, 1–100 µM
T2 sequence (P06133 24-528): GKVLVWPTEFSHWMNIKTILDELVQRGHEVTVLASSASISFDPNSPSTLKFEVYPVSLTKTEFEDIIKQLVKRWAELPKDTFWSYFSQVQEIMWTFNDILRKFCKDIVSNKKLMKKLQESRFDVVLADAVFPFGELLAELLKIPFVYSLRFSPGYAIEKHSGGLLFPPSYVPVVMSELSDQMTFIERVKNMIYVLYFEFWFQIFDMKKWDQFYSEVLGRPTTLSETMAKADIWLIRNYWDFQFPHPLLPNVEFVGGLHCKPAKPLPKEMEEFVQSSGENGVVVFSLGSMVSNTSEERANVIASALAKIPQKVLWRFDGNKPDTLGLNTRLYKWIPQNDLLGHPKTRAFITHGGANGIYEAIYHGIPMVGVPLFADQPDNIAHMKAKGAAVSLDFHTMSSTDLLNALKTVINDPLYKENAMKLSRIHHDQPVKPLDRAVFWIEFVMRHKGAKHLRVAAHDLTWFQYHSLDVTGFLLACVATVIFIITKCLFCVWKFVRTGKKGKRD

[20] = probenecid 500-mg twice-daily dose
[21] = ref 15 (ertugliflozin), 38 (dapagliflozin)
[22] = dapagliflozin multiple oral dose 10 mg once daily
[23] = dapagliflozin multiple oral dose 50 mg once daily
[24] = dapagliflozin single oral dose 10 mg, geometric mean
[25] = dapagliflozin single oral dose 10 mg
[26] = retrospectively calculated from CLiv, CLr, CYP fm and reaction phenotyping
[27] = ertugliflozin single oral dose 0.5 mg, geometric mean (%CV)
[28] = ertugliflozin single oral dose 2.5 mg, geometric mean (%CV)
[29] = ertugliflozin single oral dose 10 mg, geometric mean (%CV)
[30] = ertugliflozin single oral dose 30 mg, geometric mean (%CV)
[31] = ertugliflozin single oral dose 100 mg, geometric mean (%CV)
[32] = ertugliflozin single oral dose 300 mg, geometric mean (%CV)
[33] = ertugliflozin multiple oral dose 5 mg once daily
[34] = ertugliflozin multiple oral dose 15 mg once daily
[35] = ertugliflozin single dose 0.1 mg administered intravenously
[36] = ertugliflozin single oral dose 0.5 mg
[37] = ertugliflozin single oral dose 2.5 mg
[38] = ertugliflozin single oral dose 10 mg
[39] = ertugliflozin single oral dose 15 mg
[40] = ertugliflozin single oral dose 30 mg
[41] = ertugliflozin single oral dose 100 mg
[42] = ertugliflozin single oral dose 300 mg

Compound: CCOc1ccc(Cc2cc([C@@H]3O[C@H](CO)[C@@H](O)[C@H](O)[C@H]3O)ccc2Cl)cc1 [Dapagliflozin, dapagliflozin]
- Share of systemic UGT clearance occurring in the liver (UGT): 90%
- Renal excretion of unchanged drug [1]: 2%
- Elimination by glucuronidation [1]: 88%
- Elimination by oxidation (converted to oxidative metabolites) [1]: 10%
- AUCR predicted/observed ratio (PBPK): 1.0
- CmaxR predicted/observed ratio (PBPK): 1.0
- B/P ratio [2]: 0.88
- Caco‐2 permeability coefficient (Caco‐2): 15.9 10^–6 cm/s
- LogP [3]: 2.52
- Vss [4, 21]: 1.19 L/kg
- Observed Cmax [4, 22]: 119 ng/mL
- Observed Cmax [4, 23]: 728 ng/mL
- Observed AUCinf [4, 24]: 628 ng·h/mL
- Observed Cmax [4, 24]: 143 ng/mL
- CLiv [4, 21]: 12.4 L/h
- Absolute bioavailability (F) ([4]; oral, ref 15 (ertugliflozin), 38 (dapagliflozin)): 78%
- Fe observed (fraction excreted unchanged in urine) [5]: 0.02
- microsomal CLint (CYP): 4 µL/min/mg
- fm,UGT1A9 observed (UGT1A9 [6]): 0.79
- microsomal CLint (UGT1A9 [6]): 30 µL/min/mg
- Relative contribution of UGT1A9 to UGT metabolism (UGT1A9 [6]; in vitro UGT reaction phenotyping of this paper (HLM with UGT1A9 inhibitors)): 90%
- AUC predicted/ observed ratio (PBPK model; [22]): 1.06
- Cmax predicted/ observed ratio (PBPK model; [22]): 1.03
- AUC predicted/ observed ratio (PBPK model; [23]): 1.06
- Cmax predicted/ observed ratio (PBPK model; [23]): 0.84
- AUC predicted/ observed ratio (PBPK model; [25]): 0.92
- Cmax predicted/ observed ratio (PBPK model; [25]): 0.87
- Increase in dapagliflozin exposure ([7]; co-administration with mefenamic acid): 51%
- microsomal CLint [8]: 3 µL/min/mg
- fm,UGT2B7 observed (UGT2B4/2B7 [9]): 0.09
- Remaining UGT metabolism assigned to UGT2B7 (UGT2B4/2B7 [9]; remainder after UGT1A9 contribution): 10%

Compound: CCOc1ccc(Cc2cc([C@]34OC[C@](CO)(O3)[C@@H](O)[C@H](O)[C@H]4O)ccc2Cl)cc1 [Ertugliflozin, ertugliflozin]
- Share of systemic UGT clearance occurring in the liver (UGT): 90%
- Renal excretion of unchanged drug [1]: ~ 2%
- Elimination by glucuronidation [1]: ~ 86%
- Elimination by oxidation (converted to oxidative metabolites) [1]: ~ 12%
- fm,CYP3A5 observed (CYP3A5 [10]; fm,CYP × % contribution): 0.012
- CLint, CYP: CYP3A5 (CYP3A5 [10]; [26]): 0.006 µL/min/pmol
- B/P ratio [2]: 0.66
- Caco‐2 permeability coefficient (Caco‐2): 4.1 10^–6 cm/s
- Relative contribution of UGT1A9 to glucuronidation (UGT1A9 [11]): 81%
- fm,CYP3A4 observed (CYP3A4 [12]; fm,CYP × % contribution): 0.103
- CLint, CYP: CYP3A4 (CYP3A4 [12]; [26]): 0.041 µL/min/pmol
- LogP [3]: 2.5
- Vss [4, 21]: 1.23 L/kg
- Observed AUCinf [4, 27]: 45.7 (10) ng·h/mL
- Observed Cmax [4, 27]: 7.23 (11) ng/mL
- Observed AUCinf [4, 28]: 231 (22) ng·h/mL
- Observed Cmax [4, 28]: 42.8 (21) ng/mL
- Observed AUCinf [4, 29]: 909 (15) ng·h/mL
- Observed Cmax [4, 29]: 182 (22) ng/mL
- Observed AUCinf [4, 30]: 2810 (18) ng·h/mL
- Observed Cmax [4, 30]: 545 (24) ng/mL
- Observed AUCinf [4, 31]: 9610 (16) ng·h/mL
- Observed Cmax [4, 31]: 1620 (16) ng/mL
- Observed AUCinf [4, 32]: 26400 (16) ng·h/mL
- Observed Cmax [4, 32]: 4330 (20) ng/mL
- Fa ([4]; fraction absorbed, absolute bioavailability study): 1.0
- CLiv [4, 21]: 11.2 L/h
- Fe observed (fraction excreted unchanged in urine) [5]: 0.02
- Fu,plasma [13]: 0.064
- fm,UGT1A9 observed (UGT1A9 [6]): 0.70
- microsomal CLint (UGT1A9 [6]): 35 µL/min/mg
- fm,CYP2C8 observed (CYP2C8 [14]; fm,CYP × % contribution): 0.005
- CLint, CYP: CYP2C8 (CYP2C8 [14]; [26]): 0.011 µL/min/pmol
- AUC predicted/ observed ratio (PBPK model; [33]): 1.03
- Cmax predicted/ observed ratio (PBPK model; [33]): 1.22
- AUC predicted/ observed ratio (PBPK model; [34]): 0.97
- Cmax predicted/ observed ratio (PBPK model; [34]): 1.04
- AUC predicted/ observed ratio (PBPK model; [35]): 1.08
- Cmax predicted/ observed ratio (PBPK model; [35]): 0.98
- AUC predicted/ observed ratio (PBPK model; [36]): 0.82
- Cmax predicted/ observed ratio (PBPK model; [36]): 1.16
- AUC predicted/ observed ratio (PBPK model; [37]): 0.81
- Cmax predicted/ observed ratio (PBPK model; [37]): 0.98
- AUC predicted/ observed ratio (PBPK model; [38]): 0.82
- Cmax predicted/ observed ratio (PBPK model; [38]): 0.92
- AUC predicted/ observed ratio (PBPK model; [39]): 0.81
- Cmax predicted/ observed ratio (PBPK model; [39]): 0.97
- AUC predicted/ observed ratio (PBPK model; [40]): 0.80
- Cmax predicted/ observed ratio (PBPK model; [40]): 0.92
- AUC predicted/ observed ratio (PBPK model; [41]): 0.78
- Cmax predicted/ observed ratio (PBPK model; [41]): 1.04
- AUC predicted/ observed ratio (PBPK model; [42]): 0.83
- Cmax predicted/ observed ratio (PBPK model; [42]): 1.13
- Contribution of CYP2C8 to oxidative metabolism (CYP2C8 [15]): 4%
- Contribution of CYP2C8 to oxidative metabolism (CYP2C8 [15]; listed as ertugliflozin): 4% and 0–4%
- Contribution of CYP3A4 to oxidative metabolism (CYP3A4 [16]): 86%
- Contribution of CYP3A4 to oxidative metabolism (CYP3A4 [16]; listed as ertugliflozin): 86% and 85–100%
- Relative contribution of UGT2B4/2B7 to glucuronidation (UGT2B4/2B7 [17]; in vitro UGT reaction phenotyping, assigned to UGT2B7 in model): 19%
- microsomal CLint [8]: 8 µL/min/mg
- fm,UGT2B7 observed (UGT2B4/2B7 [9]): 0.16
- Contribution of CYP3A5 to oxidative metabolism (CYP3A5 [18]): 10%
- Contribution of CYP3A5 to oxidative metabolism (CYP3A5 [18]; listed as ertugliflozin): 10% and 0–10%

Compound: Cc1cccc(Nc2ccccc2C(=O)O)c1C [MFA, mefenamic acid]
- LogP [3]: 5.4
- pKa ([3]; ref DrugBank 49): 3.89
- Observed AUCinf ([4]; MFA single oral dose 500 mg): 34200 ng·h/mL
- Observed Cmax ([4]; MFA single oral dose 500 mg): 6900 ng/mL
- AUC predicted/ observed ratio (PBPK model; MFA single oral dose 500 mg): 0.89
- Cmax predicted/ observed ratio (PBPK model; MFA single oral dose 500 mg): 0.92
- Fold adjustment of in vitro to in vivo UGT Ki values (increased potency) (UGT1A9 [19]): ~ 2.9 fold
- Inhibition of UGT2B4 in vitro (UGT2B4): did not inhibit

Compound: Cc1ccc([C@@H]2O[C@H](CO)[C@@H](O)[C@H](O)[C@H]2O)cc1Cc1ccc(-c2ccc(F)cc2)s1 [canagliflozin]
- Increase in canagliflozin exposure ([7]; co-administration with probenecid): 21%

Compound: Nc1nc(CC(=O)Nc2ccc(CCNC[C@H](O)c3ccccc3)cc2)cs1 [mirabegron]
- UGT2B7-mediated metabolism incorporated in PBPK model (UGT2B4/2B7 [17]): ~ 30%

Compound: CCCN(CCC)S(=O)(=O)c1ccc(C(=O)O)cc1 [probenecid]
- estimated unbound maximum steady-state concentration (Cmax,ss,u) [20]: 29 µM
